Literature values as cited in US9827328B2, “Combination therapy for treatment of cancer” (UNIVERSITY OF SOUTH ALABAMA, priority 2011, dated 2017).
Like-named read-outs stand apart in the source and are kept apart here.

Assays:
[1] = tested on: patients with metastatic breast cancer
[2] = tested on: patients with advanced or metastatic breast cancer; details: weekly nab-paclitaxel v every-three week Taxotere

Structure (SMILES) | incidence of hyperglycemia reported as adverse effect ([1]; all patients) | median survival ([1]; all patients) | median time to tumor progression (TTP) ([1]; all patients) | overall response rate (ORR) ([1]; all patients, ITT) | number of patients with persistent grade 3 sensory neuropathy ([1]; by day 28 after first occurrence) | episodes of motor neuropathy or grade 4 sensory neuropathy ([1]; in vivo) | incidence of treatment-related grade 4 neutropenia ([1]; in vivo) | mean neutrophil nadir ([1]; in vivo) | treatment-related grade 3 sensory neuropathy ([1]; in vivo) | severe (grade 3 or 4) treatment-related hypersensitivity reactions ([1]; nab-paclitaxel without premedication, Taxol with standard premedication) | tumor response rate ([1]; patients aged younger than 65 years) | ORR ([1]; patients who received first-line therapy) | ORR ([1]; patients with nonvisceral dominant lesions) | tumor response rate ([1]; patients with visceral dominant lesions) | ORR ([1]; patients ≧65 years old) | ORR ([1]; prior anthracycline therapy, adjuvant/metastatic setting) | ORR ([1]; prior anthracycline therapy, metastatic setting only) | ORR ([1]; second-line or greater therapy) | median survival ([1]; second-line or greater therapy) | rate of grade 4 neutropenia [2]
CC(=O)O[C@H]1C(=O)[C@@]2(C)[C@H]([C@H](OC(=O)c3ccccc3)[C@]3(O)C[C@H](OC(=O)[C@H](O)[C@@H](NC(=O)c4ccccc4)c4ccccc4)C(C)=C1C3(C)C)[C@]1(OC(C)=O)CO[C@@H]1C[C@@H]2O [Taxol, paclitaxel] | 7% | 55.7 weeks | 16.9 weeks | 19% | 4 | No episodes | 22% | 1.31e+09 L⁻¹ | 2% | grade 3 hypersensitivity reactions occurred | 19% | 27% | 19% | 19% | 19% | 18% | 14% | 13% | 46.7 weeks | –
CC(=O)O[C@@]12CO[C@@H]1C[C@H](O)[C@@]1(C)C(=O)[C@H](O)C3=C(C)[C@@H](OC(=O)[C@H](O)[C@@H](NC(=O)OC(C)(C)C)c4ccccc4)C[C@@](O)([C@@H](OC(=O)c4ccccc4)[C@H]21)C3(C)C [Taxotere, docetaxel] | – | – | – | – | – | – | – | – | – | – | – | – | – | – | – | – | – | – | – | 75%
